Measurements published in patent US12479834B2, “Phenol compound or salt thereof” (TAIHO PHARMACEUTICAL CO., LTD., priority 2019, dated 2025).

Legend:
[1] = target: T1, G12C K-Ras4B (1-169) (Homo sapiens, UniProt P01116, G12C); experiment: Binding to KRAS G12C mutant, compound binding rate by LC-MS; settings: final compound concentration 2 μM, 1 μM protein, 2 hours at 25° C.
T1 construct: G12C K-Ras4B (1-169) protein, which was a KRAS G12C mutant; His tag (N, cleaved yes); made in house; host or cells: E. coli BL21 (DE3)
Method in brief: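 Covalent labelling at 2 μM final compound on a mix of 1 μM each wild-type and G12C K-Ras4B (1-169) (E. coli-expressed, tag removed) in 1×TBS, 0.1 mM TCEP, 2 h at 25° C., quenched with formic acid. Intact-protein ESI Q-TOF LC-MS; binding rate from adduct vs unbound protein signal, graded A–E in 20% bands.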

[2] = test system: NCI-H358 cells; experiment: Growth inhibition of KRAS-G12C mutant cell line NCI-H358 (CellTiter-Glo 2.0); type: cell-based; settings: Homo sapiens, 72 h; NCI-H358, 3-day culture with compound
Description: KRAS-G12C mutant human lung cancer cell line NCI-H358 cells (ATCC, Cat #: CRL-5807) were suspended in RPMI1640 medium (manufactured by Fujifilm Wako Pure Chemical Corp.) containing 10% fetal bovine serum. The cell suspension was seeded at 500 cells/well into the wells of a 384-well flat-bottom microplate and cultured at 37° C. for 1 day in an incubator containing 5% CO2. The compound of the present invention was dissolved in DMSO and diluted with DMSO such that the concentration of the test compound was 500 times the final concentration. The solution of the test compound in DMSO was diluted with the medium used for suspending the cells, and the resultant was added to each well of the cell culture plate such that the final concentration of DMSO was 0.2%, followed by culture at 37° C. for another 3 days in an incubator containing 5% CO2.
Growth inhibition rate (%)=(C−T)/(C)×100 • T: the emission intensity in a well supplemented with the test compound. • C: the emission intensity in a well not supplemented with the test compound.

[3] = target: T2, KRAS G12C mutant (Homo sapiens, UniProt P01116, G12C); experiment: Inhibition of SOS1-mediated nucleotide (GDP-GTP) exchange reaction of KRAS G12C mutant, BODIPY FL GDP fluorescence; type: biochemical; settings: preincubated 25° C. 4 hours with 25 nM KRAS G12C bound with BODIPY FL GDP; SOS1 100 nM, GppNHp 1 μM, 30 minutes
T2 construct: 50 μM G12C K-Ras4B (1-169) protein and 1 mM BODIPY® FL GDP; His tag (N, cleaved yes); made in house; host or cells: E. coli BL21 (DE3)
Method in brief: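 KRAS G12C (1-169) loaded with BODIPY FL GDP (25 nM) was preincubated with compound (5% DMSO) for 4 h at 25 °C. Exchange then ran 30 min with SOS1 (564-1049, 100 nM) and 1 µM GppNHp. IC50 came from the 485/520 nm fluorescence change, normalized to DMSO and no-GppNHp controls.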

Row | SMILES | binding rate for G12C K-Ras4B (1-169) [1] | IC50 [2] [nM] | IC50 [3] [nM]
1 | C=CC(=O)N1CC(NC(=O)c2cnc(CNc3cc(C(C)(C)C)c(Cl)cc3O)n2CCN(C)C)C1 [Example 38, N-(1-Acryloylazetidin-3-yl)-2-(((5-(tert-butyl)-4-chloro-2-hydroxyphenyl)amino)methyl)-1-(2-(dimethylamino)ethyl)-1H-imidazole-5-carboxamide] | A (80% or more) | 708 | 9
2 | C=CC(=O)N1CC(NC(=O)c2c(C)nc(CNc3cc(C(C)(C)C)c(Cl)cc3O)n2Cc2ccccc2)C1 [Example 40, N-(1-Acryloylazetidin-3-yl)-1-benzyl-2-(((5-(tert-butyl)-4-chloro-2-hydroxyphenyl)amino)methyl)-4-methyl-1H-imidazole-5-carboxamide] | A (80% or more) | 535 | 13
3 | C=CC(=O)N1CC(NC(=O)c2c(C)nc(CNc3cc(C(C)(C)C)c(Cl)cc3O)n2CCCC)C1 [Example 43, N-(1-Acryloylazetidin-3-yl)-1-butyl-2-(((5-(tert-butyl)-4-chloro-2-hydroxyphenyl)amino)methyl)-4-methyl-1H-imidazole-5-carboxamide] | A (80% or more) | 351 | 7
4 | C=CC(=O)N1CC(NC(=O)c2c(C)nc(CNc3cc(C(C)(C)C)c(Cl)cc3O)n2C2CCCC2)C1 [Example 45, N-(1-Acryloylazetidin-3-yl)-2-(((5-(tert-butyl)-4-chloro-2-hydroxyphenyl)amino)methyl)-1-cyclopentyl-4-methyl-1H-imidazole-5-carboxamide] | A (80% or more) | 576 | 16
5 | C=CC(=O)N1CC(NC(=O)c2c(C)nc(CNc3cc(C(C)(C)C)c(Cl)cc3O)n2C)C1 [Example 39, N-(1-Acryloylazetidin-3-yl)-2-(((5-(tert-butyl)-4-chloro-2-hydroxyphenyl)amino)methyl)-1,4-dimethyl-1H-imidazole-5-carboxamide] | A (80% or more) | 112 | 5
6 | C=CC(=O)N1CC(NC(=O)c2c(C)nc(CNc3cc(C(C)(C)C)c(Cl)cc3O)n2CC)C1 [Example 41, N-(1-Acryloylazetidin-3-yl)-2-(((5-(tert-butyl)-4-chloro-2-hydroxyphenyl)amino)methyl)-1-ethyl-4-methyl-1H-imidazole-5-carboxamide] | A (80% or more) | 281 | 8
7 | C=CC(=O)N1CC(NC(=O)c2cnc(CNc3cc(C(C)(C)C)c(Cl)cc3O)n2CCOC)C1 [Example 37, N-(1-Acryloylazetidin-3-yl)-2-(((5-(tert-butyl)-4-chloro-2-hydroxyphenyl)amino)methyl)-1-(2-methoxyethyl)-1H-imidazole-5-carboxamide] | A (80% or more) | 321 | 13
8 | C=CC(=O)N1CC(NC(=O)c2sc(CNc3cc(C(C)(C)C)c(Cl)cc3O)nc2C)C1 [Example 20, N-(1-Acryloylazetidin-3-yl)-2-(((5-(tert-butyl)-4-chloro-2-hydroxyphenyl)amino)methyl)-4-methylthiazole-5-carboxamide] | A (80% or more) | 658 | 13
9 | C=CC(=O)N1CC(NC(=O)c2c(C)nc(CNc3cc(C(C)(C)C)c(Cl)cc3O)n2Cc2cccnc2)C1 [Example 46, N-(1-Acryloylazetidin-3-yl)-2-(((5-(tert-butyl)-4-chloro-2-hydroxyphenyl)amino)methyl)-4-methyl-1-(pyridin-3-ylmethyl)-1H-imidazole-5-carboxamide] | A (80% or more) | 916 | 5
10 | C=CC(=O)N1CC(NC(=O)c2coc(CNc3cc(C(C)(C)C)c(Cl)cc3O)n2)C1 [Example 13, N-(1-Acryloylazetidin-3-yl)-2-(((5-(tert-butyl)-4-chloro-2-hydroxyphenyl)amino)methyl)oxazole-4-carboxamide] | A (80% or more) | – | 735
11 | C=CC(=O)N1CC(NC(=O)c2cnc(CNc3cc(C(C)(C)C)c(Cl)cc3O)[nH]2)C1 [Example 26, N-(1-Acryloylazetidin-3-yl)-2-(((5-(tert-butyl)-4-chloro-2-hydroxyphenyl)amino)methyl)-1H-imidazole-5-carboxamide] | A (80% or more) | – | 212

The next lines start with the values.

Row | binding rate for G12C K-Ras4B (1-169) [1] | IC50 [2] [nM] | IC50 [3] [nM] | SMILES
12 | B (60% or more and less than 80%) | 1100 | 55 | C=CC(=O)N1CC(NC(=O)c2c(C)nc(Cc3cc(C(C)(C)C)c(Cl)cc3O)n2C)C1 [Example 92, N-(1-Acryloylazetidin-3-yl)-2-(5-(tert-butyl)-4-chloro-2-hydroxybenzyl)-1,4-dimethyl-1H-imidazole-5-carboxamide]
13 | A (80% or more) | 399 | 17 | C=CC(=O)N1CC(NC(=O)c2c(C)nc(CNc3cc(C(C)(C)C)c(C)cc3O)n2C)C1 [Example 76, N-(1-Acryloylazetidin-3-yl)-2-(((5-(tert-butyl)-2-hydroxy-4-methylphenyl)amino)methyl)-1,4-dimethyl-1H-imidazole-5-carboxamide]
14 | A (80% or more) | 1360 | 65 | C=CC(=O)N1CC(NC(=O)c2c(C)nn(Cc3cc(C(C)(C)C)c(Cl)cc3O)c2C)C1 [Example 96, N-(1-Acryloylazetidin-3-yl)-1-(5-(tert-butyl)-4-chloro-2-hydroxybenzyl)-3,5-dimethyl-1H-pyrazole-4-carboxamide]
15 | A (80% or more) | 683 | 22 | C=CC(=O)N1CC(NC(=O)c2cnc(Cc3cc(C(C)(C)C)c(Cl)cc3O)n2C)C1 [Example 97, N-(1-Acryloylazetidin-3-yl)-2-(5-(tert-butyl)-4-chloro-2-hydroxybenzyl)-1-methyl-1H-imidazole-5-carboxamide]
16 | D (20% or more and less than 40%) | – | 3140 | C=CC(=O)N1CC(NC(=O)c2ccc(CNc3cc(C(F)(F)F)c(Cl)cc3O)o2)C1 [Example 50, N-(1-Acryloylazetidin-3-yl)-5-(((4-chloro-2-hydroxy-5-(trifluoromethyl)phenyl)amino)methyl)furan-2-carboxamide]
17 | B (60% or more and less than 80%) | – | 144 | C=CC(=O)N1CC(NC(=O)c2cnc(CNc3cc(CC)c(Cl)cc3O)n2C)C1 [Example 61, N-(1-Acryloylazetidin-3-yl)-2-(((4-chloro-5-ethyl-2-hydroxyphenyl)amino)methyl)-1-methyl-1H-imidazole-5-carboxamide]
18 | A (80% or more) | – | 37 | C=CC(=O)N1CC(NC(=O)c2cnc(CNc3cc(C4(C)CC4(F)F)c(Cl)cc3O)n2C)C1 (stereo not shown) [Example 63, N-(1-Acryloylazetidin-3-yl)-2-(((4-chloro-5-(2,2-difluoro-1-methylcyclopropyl)-2-hydroxyphenyl)amino)methyl)-1-methyl-1H-imidazole-5-carboxamide]
19 | B (60% or more and less than 80%) | – | 1040 | C=CC(=O)N1CC(NC(=O)c2cnc(C(C)Nc3cc(C(C)(C)C)c(Cl)c(F)c3O)n2C)C1 (stereo not shown) [Example 82, N-(1-Acryloylazetidin-3-yl)-2-(1-((5-(tert-butyl)-4-chloro-3-fluoro-2-hydroxyphenyl)amino)ethyl)-1-methyl-1H-imidazole-5-carboxamide]
20 | D (20% or more and less than 40%) | – | 995 | C=CC(=O)N1CC(NC(=O)c2cnc(CNc3cc(S(F)(F)(F)(F)F)c(Cl)cc3O)n2C)C1 [Example 58, N-(1-Acryloylazetidin-3-yl)-2-(((4-chloro-2-hydroxy-5-(pentafluoro-λ6-sulfaneyl)phenyl)amino)methyl)-1-methyl-1H-imidazole-5-carboxamide]
21 | E (less than 20%) | – | 1140 | C=CC(=O)N1CC(N(C)C(=O)c2ccc(CNc3cc(OC(F)(F)F)c(Cl)cc3O)o2)C1 [Example 49, N-(1-Acryloylazetidin-3-yl)-5-(((4-chloro-2-hydroxy-5-(trifluoromethoxy)phenyl)amino)methyl)-N-methylfuran-2-carboxamide]
